Assay results published in US7838542B2, “Bicyclic compositions and methods for modulating a kinase cascade” (Kinex Pharmaceuticals, LLC, priority 2006, dated 2010).
“Also recorded” adds a separate entry of the source. Numbered stars: 1 amine (or outer) side, 2 acyl side, 3 side chain; on linkers, the order of the positions; unused ones are H or OH. Square brackets hold non-standard residues; d marks the D form. Peptide text beside a SMILES is read from it. X2 = O=C([C@H](CNS(=O)(=O)O)N[*:1])[*:2]; X3 = O=C([C@H](CB(O)O)N[*:1])[*:2]

What was measured:
[1] = tested on: SCID mice; settings: mouse, in vivo, ip
Description: These compounds were administered to SCID mice by intraperitoneal administration in tween80:EtOH.

[2] = biological target: pp60^c-src (Homo sapiens, UniProt P12931); assay: Src inhibition (RR-SRC phosphorylation), Cellular Mimetic assay; settings: for mode of inhibition with respect to ATP: IC50 or % inhibition monitored at ATP increased up to 1 mM; for % Inhibition of 2 mM RR-src at Inhibitor Concentration (1 mM): inhibitor 1 mM; for % Inhibition of 2 mM RR-src at Inhibitor Concentration (100 μM): inhibitor 100 μM
pp60^c-src, sequence (P12931 whole entry): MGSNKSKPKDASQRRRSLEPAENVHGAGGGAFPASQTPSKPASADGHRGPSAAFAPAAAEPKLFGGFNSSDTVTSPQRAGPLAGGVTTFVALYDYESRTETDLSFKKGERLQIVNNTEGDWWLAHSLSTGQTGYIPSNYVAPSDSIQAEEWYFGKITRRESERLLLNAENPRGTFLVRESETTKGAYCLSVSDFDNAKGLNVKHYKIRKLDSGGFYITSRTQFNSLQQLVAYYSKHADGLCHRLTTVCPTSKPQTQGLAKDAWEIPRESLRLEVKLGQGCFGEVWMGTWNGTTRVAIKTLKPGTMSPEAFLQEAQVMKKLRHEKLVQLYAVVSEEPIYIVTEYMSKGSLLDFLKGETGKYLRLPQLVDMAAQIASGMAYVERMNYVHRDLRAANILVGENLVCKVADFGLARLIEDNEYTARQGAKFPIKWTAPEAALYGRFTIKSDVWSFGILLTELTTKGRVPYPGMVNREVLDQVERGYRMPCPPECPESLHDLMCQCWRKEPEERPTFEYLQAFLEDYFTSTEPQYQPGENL

[3] = biological target: T1, PKA (Homo sapiens, UniProt P17612); assay: PKA inhibition, Literature Mimetic assay; type: biochemical; settings: Literature Mimetic assay conditions
Excerpt: (§1) The boronic acid inhibitors 21-24 have two Arg's in their sequence also and therefore will bind to the phosphocellulose paper in addition to Kemptamide (although not as consistently or completely due to one less positive charge). Consequently, when analyzed as inhibitors, the amount of phosphorylated Kemptamide produced was not only counted, but also the amount of phosphorylated inhibitor simultaneously produced (e.g. see 26 below). The net result is that distorted IC50 curves are obtained which show net “stimulation” at higher inhibitor concentrations in some cases. […] The underlying substrate behavior of these “inhibitors” makes an accurate measurement of their inhibition potency impossible with the current assay. However, it does appear from the data that homologating the boronic acid functionality out with only CH2 groups (homologations with boronic acid non-peptide Src inhibitors may also be carried out) decreases the binding affinity and ability to function as a substrate.

[4] = biological target: T1, PKA; assay: PKA inhibition, Cellular Mimetic assay; type: biochemical; settings: Cellular Mimetic assay conditions
Excerpt: as §1

[5] = biological target: T1, PKA; assay: STAIRe method: form of the protein kinase the inhibitor binds best to; type: biochemical
Excerpt: This was a somewhat surprising result since these inhibitors are analogs of the “end product inhibitors” 1 and 12 which must bind simultaneously with MgADP just following phosphate transfer in the generally accepted reaction mechanism for protein kinases.

[6] = tested on: LA25 cells (temperature-sensitive pp60^v-Src transformant of NRK); assay: LA25 cell growth at permissive and non-permissive temperature; type: cell-based, rat
Description: (§2) Active Src inhibitors can be studied in a set of side-by-side cell-based assays using normal rat kidney (NRK) cells and a temperature-sensitive pp60^v-Src transformant of this cell line (LA25). The LA25 transformant engages in anchorage- and serum-independent growth at the “permissive” temperature of 33° C. due to activation of pp60^v-src but not at the “non-permissive” temperature of 40° C. at which pp60^v-src is not activated (Li et al., 1996). The use of this pair of closely related cell lines for testing the Src inhibitors at both the permissive and non-permissive temperatures allows one to determine if a given Src inhibitor is blocking cell growth due to specific blockade of the Src signaling pathway, by a different mechanism or by a general cytotoxic effect.
(§3) As shown in this graph the growth of the LA25 cells at the permissive temperature of 33° C. is inhibited by ca. 50% at a 25 μM concentration of 43-meta relative to the LA25 cell growth at the non-permissive 40° C. as a control. […] Since the 43-meta solutions were prepared with a low concentration of DMSO for solubilization, a DMSO control was also run at the same concentration.

[7] = tested on: normal rat kidney (NRK) cells; assay: NRK non-transformed cell growth; type: cell-based
Description: as §2, §3

[8] = tested on: PC-3; assay: NIH 60-tumor cell panel assay, PC-3; type: cell-based; settings: read-out: growth inhibition IC50, PC-3
Excerpt: The initial non-peptide Src inhibitors have also shown very encouraging results in four different series of cell culture assays. 1) In the NIH 60-tumor cell panel assay, broad activity (as one would expect for a Src inhibitor) was seen against the tumor cell lines, including the prostate lines. […] 3) The Src inhibitors were compared to the cancer drugs etoposide, taxol, doxorubicin and cisplatin in ovarian tumors from three different patients and an abdominal carcinoma from another patient. […] 5) Two of the Src inhibitors were also tested for inhibition of ts v-Src stimulated LA25 cell growth. […] 6) Two of the Src inhibitors were also tested for inhibition of normal rat kidney cell growth.

[9] = tested on: DU-145; assay: NIH 60-tumor cell panel assay, DU-145; type: cell-based; settings: read-out: growth inhibition IC50, DU-145

In the case of `O=C(NCc1cccc(O)c1)c1cc2cc(F)ccc2[nH]1` [Compound 1a], the “toxicity in MTD study (weight loss)” value [1] is reported as “less toxic in mice than compound 2k”.
`O=C(NCc1cccc(F)c1)c1cc2cc(F)ccc2[nH]1` [Compound 1z] showed a melting point of 239 to 241 °C.
`O=C(Nc1cccc(O)c1)c1cc2ccc(O)cc2cc1O` [Compound 3] showed an IC50 ([2]; Table X) of 16 µM.
For `CC[C@H](C)[C@H](NC(=O)[C@H](CNS(=O)(=O)O)NC(=O)CNC(=O)[C@H](CCCNC(=N)N)NC(=O)[C@H](CCCNC(=N)N)NC(C)=O)C(N)=O` [Compound 8] (Ac-RRG[X2]I-NH2), the “times tighter binding than end product phosphate inhibitor 1” value [3] was 31 ×, the “times tighter binding than end product phosphate inhibitor 1” value [4] was 108 × and the “nucleotide form of the kinase bound best (STAIRe)” value [5] was “bind best when MgATP (not MgADP or no nucleotide) is also bound”.
With `CC[C@H](C)[C@H](NC(=O)[C@H](CB(O)O)NC(=O)CNC(=O)[C@H](CCCNC(=N)N)NC(=O)[C@H](CCCNC(=N)N)NC(C)=O)C(N)=O` [Compound 21] (Ac-RRG[X3]I-NH2) the inhibition at 100 µM ([2]; read-out: % Inhibition at 100 μM (std. dev.), inhibitor 100 μM, Table IX) was 14%.
For `OB(O)c1ccc2ccccc2c1` [Compound 27, 2-naphthalene boronic acid], the “mode of inhibition with respect to ATP” value [2] was “not ATP-competitive inhibitors; also recorded: NON-ATP COMPETITIVE”.
With `O=S(=O)(O)Nc1ccc2ccccc2c1` [Compound 28] the “mode of inhibition with respect to ATP” value [2] was “not ATP-competitive inhibitors; also recorded: NON-ATP COMPETITIVE”, the IC50 ([2]; Table IV) was 1600 µM and the Ki ([2]; Table IV) was 963 µM. For the same compound, the “% Inhibition of 2 mM RR-src at Inhibitor Concentration (1 mM)” value (shortened to “% Inhibition of 2 mM RR-src … (1 mM)”) ([2]; Table IV) was 31%.
In the case of `O=S(=O)(O)c1ccc2ccccc2c1` [Compound 29], the “% Inhibition of 2 mM RR-src … (1 mM)” value ([2]; Table IV) is reported as 0 (1 mM) %.
With `NS(=O)(=O)c1ccc2ccccc2c1` [Compound 31] the “% Inhibition of 2 mM RR-src at Inhibitor Concentration (100 μM)” value (“% Inhibition of 2 mM RR-src … (100 μM)” below) ([2]; Table IV) was 0 (100 μM) %.
With `OB(O)c1cccc2ccccc12` [Compound 32] the “% Inhibition of 2 mM RR-src … (100 μM)” value ([2]; Table IV) was 0 (100 μM) %.
With `O=P(O)(O)c1cccc2ccccc12` [Compound 33] the “% Inhibition of 2 mM RR-src … (1 mM)” value ([2]; Table IV) was 1 (1 mM) %.
With `NS(=O)(=O)c1cccc2ccccc12` [Compound 34] the “% Inhibition of 2 mM RR-src … (100 μM)” value ([2]; Table IV) was 0 (100 μM) %.
With `OB(O)c1cc2ccccc2o1` [Compound 35] the “% Inhibition of 2 mM RR-src … (100 μM)” value ([2]; Table IV) was 10 (100 μM) %.
With `OB(O)c1cc2ccccc2s1` [Compound 36] the “% Inhibition of 2 mM RR-src … (100 μM)” value ([2]; Table IV) was 12 (100 μM) %.
In the case of `O=C(Nc1cccc(O)c1)c1cc2ccc(O)cc2cc1O` [Compound 43-meta], the “v-Src induced (Src stimulated) LA25 cell growth” value [6] is reported as “specifically blocked the v-Src induced cell growth”, the inhibition at 25 µM ([6]; Rattus norvegicus, read-out: inhibition of growth of LA25 cells at the permissive temperature of 33° C., 25 μM, relative to LA25 growth at non-permissive 40° C.) is reported as about 50% and the “normal growth of the parent non-transformed cells” value [7] is reported as “without inhibiting the normal growth of the parent non-transformed cells”. For the same compound, the cell toxicity ([7]; up to 400 μM, NRK cells, LA25 cells at 40° C. and at 33° C.) was “lack of cell toxicity”.
In the case of `O=C(Nc1cccc(O)c1)c1cc2cccc(O)c2cc1O` [Compound 45], the “v-Src induced (Src stimulated) LA25 cell growth” value [6] is reported as “specifically blocked the v-Src induced cell growth” and the “normal growth of the parent non-transformed cells” value [7] is reported as “without inhibiting the normal growth of the parent non-transformed cells”.
`O=C(NCc1cccc(O)c1)c1cc2cc(O)ccc2[nH]1` [Compound 49-meta] gave an IC50 [8] of 39 µM and an IC50 [9] of over 100 µM.
